One compound from article PMC6271731, “Multitarget Molecular Hybrids of Cinnamic Acids” (Molecules, 2014) can be followed below.

Structures are written as SMILES.

The data set is described as follows: Lipophilicity as RM values by RP-TLC. It counts as physicochemical. As to conditions: methanol/water 70/30, 24 °C, average of at least five measurements. Summed up:
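RP-TLC on silica gel impregnated with 5% (v/v) liquid paraffin, developed with methanol/water 70/30 (v/v) in saturated tanks at 24 °C; UV detection. RM calculated from Rf (five measurements) as RM = log[(1/Rf) − 1].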

Turning to `CC(=O)Nc1ccc(OC(=O)/C=C/c2cccc(Oc3ccccc3)c2)cc1` [Compound 2a, (E)-4-Acetamidophenyl 3-(3-phenoxyphenyl)acrylate], the “RM (±S.D.)” value came to 0.276 ± 0.006.
